One assay deals with T1, PI3Kβ (Homo sapiens, UniProt P42338).
T1 construct: endogenous in cells; host or cells: Jurkat (ATCC TIB-152, clone E6-1) and Ramos (ATCC CRL-1596), 1:1 lysate mix
The assay is described as follows: kinobeads assay, PI3Kβ. Format: binding. Particulars: 1:1 mix of Jurkat and Ramos cell lysates, read-out: Inhibition values (IC50 in μM) as determined in the kinobeads assay, PI3Kβ. The procedure: (§1) The compounds of the present invention as described were tested in the mTOR kinobeads assay as described below. Briefly, test compounds (at various concentrations) and the affinity matrix (1:1 mixture of beads with immobilized phenylthiazole ligand 1 and beads with immobilized phenylmorpholin-chromen ligand; WO 2009/098021) were added to cell lysate aliquots and allowed to bind to the proteins in the lysate sample. After the incubation time the beads with captured proteins were separated from the lysate. Bound proteins were then eluted and the presence of mTOR, PI3Kα, PI3Kβ, PI3Kγ, PI3Kδ and DNA-dependent protein kinase (DNA-PK) was detected and quantified using a specific antibody in a dot blot procedure and the Odyssey infrared detection system. Dose response curves for individual kinases were generated and IC50 values calculated. Kinobeads assays for PI3 kinases (WO-A 2008/015013) and for kinase selectivity profiling (WO 2009/098021) have been previously described.
(§2) Washing of Affinity Matrix
(§3) The affinity matrix was washed two times with 15 ml of 1×DP buffer containing 0.2% NP40 (IGEPAL® CA-630, Sigma, #13021) and then resupended in 5.5 ml of 1×DP buffer containing 0.2% NP40 (10% beads slurry).
(§4) 5×DP buffer: 250 mM Tris-HCl pH 7.4, 25% Glycerol, 7.5 mM MgCl2, 750 mM NaCl, 5 mM Na3VO4, filter the 5×-lysis buffer through 0.22 μm filter and store in aliquots at −80° C. The 5×DP buffer is diluted to 1×DP buffer containing 1 mM DTT and 25 mM NaF.
(§5) Preparation of Test Compounds
(§6) Stock solutions of test compounds were prepared in DMSO. In a 96 well plate 30 μl solution of diluted test compounds at 5 mM in DMSO were prepared. Starting with this solution a 1:3 dilution series (9 steps) was prepared. For control experiments (no test compound) a buffer containing 2% DMSO was used. Compound Pi-103 (Calbiochem catalogue number 528100) served as a positive control.
(§7) Cell Culture and Preparation of Cell Lysates
(§8) Jurkat cells (ATCC catalogue number TIB-152 Jurkat, clone E6-1) and Ramos cells (ATCC number CRL-1596) were grown in 1 litre Spinner flasks (Integra Biosciences, #182101) in suspension in RPMI 1640 medium (Invitrogen, #21875-034) supplemented with 10% Fetal Bovine Serum (Invitrogen) at a density between 0.15×10^6 and 1.2×10^6 cells/ml. Cells were harvested by centrifugation, washed once with 1×PBS buffer (Invitrogen, #14190-094) and cell pellets were frozen in liquid nitrogen and subsequently stored at −80° C.
(§9) Cells were homogenized in a Potter S homogenizer in lysis buffer: 50 mM Tris-HCl, 0.8% NP40, 5% glycerol, 150 mM NaCl, 1.5 mM MgCl2, 25 mM NaF, 1 mM sodium vanadate, 1 mM DTT, pH 7.5. One complete EDTA-free tablet (protease inhibitor cocktail, Roche Diagnostics, 1873580) per 25 ml buffer was added. The material was dounced 10 times using a mechanized POTTER S, transferred to 50 ml falcon tubes, incubated for 30 minutes on ice and spun down for 10 min at 20,000 g at 4° C. (10,000 rpm in Sorvall SLA600, precooled). The supernatant was transferred to an ultracentrifuge (UZ)-polycarbonate tube (Beckmann, 355654) and spun for 1 hour at 100.000 g at 4° C. (33.500 rpm in Ti50.2, precooled). The supernatant was transferred again to a fresh 50 ml falcon tube, the protein concentration was determined by a Bradford assay (BioRad) and samples containing 50 mg of protein per aliquot were prepared. The samples were immediately used for experiments or frozen in liquid nitrogen and stored frozen at −80° C.
(§10) Cell lysate (approximately 50 mg protein per plate) was thawed in a water bath at room temperature and then kept on ice. To the thawed cell lysate 1×DP 0.8% NP40 buffer containing protease inhibitors (1 tablet for 25 ml buffer; EDTA-free protease inhibitor cocktail; Roche Diagnostics 1873580) was added in order to reach a final protein concentration of 5 mg/ml total protein. For the kinobeads experiment a 1:1 mix of Jurkat and Ramos cell lysates was used. The diluted cell lysate was stored on ice. […]

The next assay addresses T2, PI3Kα (Homo sapiens, UniProt P42336).
T2 construct: endogenous in cells; host or cells: Jurkat (ATCC TIB-152, clone E6-1) and Ramos (ATCC CRL-1596), 1:1 lysate mix
Put plainly: kinobeads assay, PI3Kα. The note with it: 1:1 mix of Jurkat and Ramos cell lysates, read-out: Inhibition values (IC50 in μM) as determined in the kinobeads assay, PI3Kα. Type of assay: binding. The procedure:
as §1, §2, §3, §4, §5, §6, §7, §8, §9, §10

The target of another assay is T3, PI3Kγ (Homo sapiens, UniProt P48736).
T3 construct: endogenous in cells; host or cells: Jurkat (ATCC TIB-152, clone E6-1) and Ramos (ATCC CRL-1596), 1:1 lysate mix
Put plainly: kinobeads assay, PI3Kγ. Format: binding. The note with it: 1:1 mix of Jurkat and Ramos cell lysates, read-out: Inhibition values (IC50 in μM) as determined in the kinobeads assay, PI3Kγ. The procedure:
as §1, §2, §3, §4, §5, §6, §7, §8, §9, §10

A further assay deals with T4, PI3Kδ (Homo sapiens, UniProt O00329).
T4 construct: endogenous in cells; host or cells: Jurkat (ATCC TIB-152, clone E6-1) and Ramos (ATCC CRL-1596), 1:1 lysate mix
Put plainly: kinobeads assay, PI3Kδ. Format: binding. Particulars: 1:1 mix of Jurkat and Ramos cell lysates, read-out: Inhibition values (IC50 in μM) as determined in the kinobeads assay, PI3Kδ. How it is done:
as §1, §2, §3, §4, §5, §6, §7, §8, §9, §10

The target in assay [1] is T5, DNA-dependent protein kinase (DNA-PK) (Homo sapiens, UniProt P78527).
T5 construct: endogenous in cells; host or cells: Jurkat (ATCC TIB-152, clone E6-1) and Ramos (ATCC CRL-1596), 1:1 lysate mix
The assay is described as follows: kinobeads assay, DNA-PK. Format: binding. Particulars: 1:1 mix of Jurkat and Ramos cell lysates, read-out: Inhibition values (IC50 in μM) as determined in the kinobeads assay, DNA-PK. How it is done: as §1, §2, §3, §4, §5, §6, §7, §8, §9, §10

Another assay concerns the target T6, mTOR (Homo sapiens, UniProt P42345).
T6 construct: endogenous in cells; host or cells: Jurkat (ATCC TIB-152, clone E6-1) and Ramos (ATCC CRL-1596), 1:1 lysate mix
Put plainly: mTOR kinobeads assay (competition binding in cell lysate, dot blot detection). Particulars: 1:1 mix of Jurkat and Ramos cell lysates, read-out: Inhibition values (IC50 in μM) as determined in the kinobeads assay, mTor. The procedure: Determination of the Effect of the Compounds According to the Invention on mTOR
as §1, §2, §3, §4, §5, §6, §7, §8, §9
Cell lysate (approximately 50 mg protein per plate) was thawed in a water bath at room temperature and then kept on ice. To the thawed cell lysate 1×DP 0.8% NP40 buffer containing protease inhibitors (1 tablet for 25 ml buffer; EDTA-free protease inhibitor cocktail; Roche Diagnostics 1873580) was added in order to reach a final protein concentration of 5 mg/ml total protein. For the kinobeads experiment a 1:1 mix of Jurkat and Ramos cell lysates was used. […]

Some results are limits rather than exact numbers.

Results on twelve compounds are retold here after patent US20140163023A1, “DIHYDROPYRROLO PYRIMIDINE DERIVATIVES AS MTOR INHIBITORS” (Cellzome Limited, priority 2011, published 2014).

By IC50 is commonly meant the concentration that gives 50% inhibition.

T3 sequence (P48736 whole entry): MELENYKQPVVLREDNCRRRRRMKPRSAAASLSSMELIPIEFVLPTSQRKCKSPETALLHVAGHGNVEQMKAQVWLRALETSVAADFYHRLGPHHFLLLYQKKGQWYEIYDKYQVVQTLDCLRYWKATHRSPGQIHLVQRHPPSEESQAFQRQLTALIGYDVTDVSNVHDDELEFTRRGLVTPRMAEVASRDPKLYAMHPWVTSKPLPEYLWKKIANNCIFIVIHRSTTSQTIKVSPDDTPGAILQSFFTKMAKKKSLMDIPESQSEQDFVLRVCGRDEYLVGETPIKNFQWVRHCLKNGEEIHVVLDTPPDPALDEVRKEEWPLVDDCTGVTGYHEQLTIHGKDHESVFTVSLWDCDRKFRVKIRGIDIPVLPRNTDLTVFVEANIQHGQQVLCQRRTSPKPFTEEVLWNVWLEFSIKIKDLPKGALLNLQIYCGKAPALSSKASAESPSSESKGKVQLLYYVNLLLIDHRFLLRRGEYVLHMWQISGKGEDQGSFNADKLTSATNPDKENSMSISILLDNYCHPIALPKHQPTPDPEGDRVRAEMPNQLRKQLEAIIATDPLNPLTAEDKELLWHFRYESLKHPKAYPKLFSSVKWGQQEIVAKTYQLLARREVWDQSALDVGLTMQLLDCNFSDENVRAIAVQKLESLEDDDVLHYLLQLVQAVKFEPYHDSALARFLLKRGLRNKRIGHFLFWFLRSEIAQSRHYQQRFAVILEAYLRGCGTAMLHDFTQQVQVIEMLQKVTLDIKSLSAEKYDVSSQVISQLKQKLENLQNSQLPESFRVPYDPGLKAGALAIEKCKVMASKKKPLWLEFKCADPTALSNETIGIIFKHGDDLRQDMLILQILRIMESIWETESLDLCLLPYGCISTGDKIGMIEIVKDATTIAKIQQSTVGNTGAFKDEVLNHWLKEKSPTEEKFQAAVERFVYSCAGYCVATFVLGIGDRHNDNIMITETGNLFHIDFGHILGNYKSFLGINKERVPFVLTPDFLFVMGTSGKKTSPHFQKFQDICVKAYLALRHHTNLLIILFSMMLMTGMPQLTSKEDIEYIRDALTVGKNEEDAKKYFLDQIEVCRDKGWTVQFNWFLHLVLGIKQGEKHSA
T4 sequence (O00329 whole entry): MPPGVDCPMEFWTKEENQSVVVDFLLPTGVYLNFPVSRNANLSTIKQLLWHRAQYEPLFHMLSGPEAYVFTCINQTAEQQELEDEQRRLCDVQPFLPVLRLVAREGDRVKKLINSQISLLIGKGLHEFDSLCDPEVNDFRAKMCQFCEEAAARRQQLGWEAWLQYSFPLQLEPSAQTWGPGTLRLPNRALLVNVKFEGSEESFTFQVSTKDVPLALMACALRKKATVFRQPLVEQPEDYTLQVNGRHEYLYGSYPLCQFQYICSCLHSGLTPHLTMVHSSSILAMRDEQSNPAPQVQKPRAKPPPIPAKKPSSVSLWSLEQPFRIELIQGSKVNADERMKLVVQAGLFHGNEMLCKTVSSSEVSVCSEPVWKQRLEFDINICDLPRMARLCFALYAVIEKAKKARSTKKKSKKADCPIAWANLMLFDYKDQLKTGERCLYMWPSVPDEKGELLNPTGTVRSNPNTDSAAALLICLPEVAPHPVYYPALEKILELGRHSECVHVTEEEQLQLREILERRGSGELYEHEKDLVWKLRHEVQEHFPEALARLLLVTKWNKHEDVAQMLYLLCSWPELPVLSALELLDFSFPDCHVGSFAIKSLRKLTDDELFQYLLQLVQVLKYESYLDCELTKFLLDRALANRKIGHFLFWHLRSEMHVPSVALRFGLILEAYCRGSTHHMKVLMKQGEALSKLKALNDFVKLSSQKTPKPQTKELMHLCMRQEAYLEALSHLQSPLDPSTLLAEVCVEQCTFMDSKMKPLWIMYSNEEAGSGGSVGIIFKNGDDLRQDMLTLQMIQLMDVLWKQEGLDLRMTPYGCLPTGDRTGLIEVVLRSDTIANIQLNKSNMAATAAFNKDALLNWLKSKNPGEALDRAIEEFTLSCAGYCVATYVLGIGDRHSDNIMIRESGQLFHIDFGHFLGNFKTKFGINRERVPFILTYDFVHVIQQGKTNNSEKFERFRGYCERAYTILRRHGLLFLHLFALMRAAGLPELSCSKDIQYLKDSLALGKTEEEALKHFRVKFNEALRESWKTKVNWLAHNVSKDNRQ
T4 sequence (P27986 whole entry partner): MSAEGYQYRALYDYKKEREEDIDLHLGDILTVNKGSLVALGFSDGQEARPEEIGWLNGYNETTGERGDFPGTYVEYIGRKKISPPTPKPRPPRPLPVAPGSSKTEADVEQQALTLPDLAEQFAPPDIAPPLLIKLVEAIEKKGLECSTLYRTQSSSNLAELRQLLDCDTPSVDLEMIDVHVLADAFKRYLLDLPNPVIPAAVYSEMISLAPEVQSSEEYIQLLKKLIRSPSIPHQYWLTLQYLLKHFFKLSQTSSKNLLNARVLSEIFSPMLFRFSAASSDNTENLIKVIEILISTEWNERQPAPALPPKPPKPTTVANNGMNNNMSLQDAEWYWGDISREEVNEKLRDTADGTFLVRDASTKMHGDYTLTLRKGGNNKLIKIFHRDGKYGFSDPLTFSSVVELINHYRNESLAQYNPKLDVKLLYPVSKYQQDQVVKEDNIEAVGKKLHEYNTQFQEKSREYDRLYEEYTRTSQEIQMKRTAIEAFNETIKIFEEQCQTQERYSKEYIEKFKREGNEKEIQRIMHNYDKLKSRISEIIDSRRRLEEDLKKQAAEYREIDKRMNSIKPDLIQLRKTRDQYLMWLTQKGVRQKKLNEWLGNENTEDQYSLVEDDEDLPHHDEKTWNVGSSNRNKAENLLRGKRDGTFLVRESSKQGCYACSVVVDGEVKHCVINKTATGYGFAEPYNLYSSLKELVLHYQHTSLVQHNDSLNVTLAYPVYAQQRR
T1 sequence (P42338 whole entry): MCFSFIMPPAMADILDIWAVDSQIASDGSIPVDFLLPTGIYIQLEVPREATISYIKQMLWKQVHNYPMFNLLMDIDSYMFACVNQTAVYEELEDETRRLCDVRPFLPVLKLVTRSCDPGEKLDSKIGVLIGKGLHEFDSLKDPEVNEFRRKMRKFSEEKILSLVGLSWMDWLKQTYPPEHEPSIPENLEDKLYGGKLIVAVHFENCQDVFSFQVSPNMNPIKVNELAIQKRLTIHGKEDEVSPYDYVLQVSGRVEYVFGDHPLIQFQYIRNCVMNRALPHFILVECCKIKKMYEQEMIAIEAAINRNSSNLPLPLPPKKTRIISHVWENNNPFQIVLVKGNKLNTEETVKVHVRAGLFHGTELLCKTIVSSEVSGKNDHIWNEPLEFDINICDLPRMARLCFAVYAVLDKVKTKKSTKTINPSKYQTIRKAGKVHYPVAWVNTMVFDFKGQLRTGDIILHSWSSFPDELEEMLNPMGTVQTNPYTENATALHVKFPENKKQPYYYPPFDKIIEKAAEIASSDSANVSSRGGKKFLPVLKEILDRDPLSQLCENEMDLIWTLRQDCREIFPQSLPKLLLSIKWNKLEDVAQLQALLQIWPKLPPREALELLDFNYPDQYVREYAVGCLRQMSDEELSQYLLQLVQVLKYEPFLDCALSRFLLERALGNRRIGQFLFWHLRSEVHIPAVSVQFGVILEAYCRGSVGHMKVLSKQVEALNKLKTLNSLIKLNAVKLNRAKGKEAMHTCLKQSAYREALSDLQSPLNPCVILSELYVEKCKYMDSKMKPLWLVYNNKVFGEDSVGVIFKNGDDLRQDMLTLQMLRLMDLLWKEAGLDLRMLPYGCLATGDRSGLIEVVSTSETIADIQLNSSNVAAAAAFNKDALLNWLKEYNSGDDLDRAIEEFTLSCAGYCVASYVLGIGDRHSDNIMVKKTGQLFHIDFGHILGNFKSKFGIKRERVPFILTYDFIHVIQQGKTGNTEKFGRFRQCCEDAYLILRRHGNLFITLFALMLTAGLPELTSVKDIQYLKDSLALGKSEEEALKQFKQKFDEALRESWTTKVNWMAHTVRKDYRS
T1 sequence (P27986 whole entry partner): as the sequence (P27986 whole entry partner) above
T2 sequence (P42336 whole entry): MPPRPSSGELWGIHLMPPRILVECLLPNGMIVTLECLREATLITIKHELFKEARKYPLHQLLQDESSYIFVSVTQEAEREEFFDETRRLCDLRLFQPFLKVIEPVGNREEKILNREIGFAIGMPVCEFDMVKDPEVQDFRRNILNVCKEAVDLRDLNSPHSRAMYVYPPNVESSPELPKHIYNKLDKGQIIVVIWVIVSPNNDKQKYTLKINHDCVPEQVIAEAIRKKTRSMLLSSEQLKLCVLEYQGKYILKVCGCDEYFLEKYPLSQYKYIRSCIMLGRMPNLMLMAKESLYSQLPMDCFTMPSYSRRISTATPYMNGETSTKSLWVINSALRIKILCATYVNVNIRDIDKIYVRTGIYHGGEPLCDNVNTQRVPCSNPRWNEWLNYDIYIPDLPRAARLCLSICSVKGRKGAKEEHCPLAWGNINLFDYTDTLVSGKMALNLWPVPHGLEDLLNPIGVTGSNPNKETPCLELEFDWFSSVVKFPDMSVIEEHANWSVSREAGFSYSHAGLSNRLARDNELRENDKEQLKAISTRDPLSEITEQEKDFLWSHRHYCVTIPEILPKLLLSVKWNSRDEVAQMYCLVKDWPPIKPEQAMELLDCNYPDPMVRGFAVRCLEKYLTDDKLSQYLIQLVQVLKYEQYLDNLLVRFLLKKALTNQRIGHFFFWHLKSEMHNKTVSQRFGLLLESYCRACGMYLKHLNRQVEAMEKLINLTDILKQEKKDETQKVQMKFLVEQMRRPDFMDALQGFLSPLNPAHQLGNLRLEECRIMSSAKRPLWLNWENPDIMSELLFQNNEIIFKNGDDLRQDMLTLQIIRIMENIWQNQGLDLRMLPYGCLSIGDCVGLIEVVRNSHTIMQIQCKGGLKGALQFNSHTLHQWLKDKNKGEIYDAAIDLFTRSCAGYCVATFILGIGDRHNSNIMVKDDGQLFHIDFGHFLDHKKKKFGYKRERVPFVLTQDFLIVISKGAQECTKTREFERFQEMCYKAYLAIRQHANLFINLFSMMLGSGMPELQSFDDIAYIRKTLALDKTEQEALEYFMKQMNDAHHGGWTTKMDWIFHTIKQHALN
T2 sequence (P27986 whole entry partner): as the sequence (P27986 whole entry partner) above

With `C[C@H]1COCCN1c1nc2c(c(-c3ccc(NC(=O)NC4CC4)cc3)n1)CNC2` [Example 1, (S)-1-cyclopropyl-3-(4-(2-(3-methylmorpholino)-6,7-dihydro-5H-pyrrolo[3,4-d]pyrimidin-4-yl)phenyl)urea], the 50% inhibitory concentration (IC50) on PI3Kβ was 10 to 100 µM; on PI3Kα, 10 to 100 µM; on PI3Kγ, 10 to 100 µM; on PI3Kδ, 10 to 100 µM; in assay [1], more than 100 µM; on mTOR, 0.1 to 1 µM.

Consider `CCNC(=O)Nc1ccc(-c2nc(N3CCOC[C@@H]3C)nc3c2CNC3)cc1` [Example 2, (S)-1-ethyl-3-(4-(2-(3-methylmorpholino)-6,7-dihydro-5H-pyrrolo[3,4-d]pyrimidin-4-yl)phenyl)urea], for which the 50% inhibitory concentration (IC50) is 10 to 100 µM at PI3Kβ; 10 to 100 µM on PI3Kα; 10 to 100 µM on PI3Kγ; 10 to 100 µM on PI3Kδ; 10 to 100 µM in assay [1]; 0.1 to 1 µM at mTOR.

For `CCNC(=O)Nc1ccc(-c2nc(N3CCOC[C@@H]3C)nc3c2CN(C=O)C3)cc1` [Example 3, (S)-1-ethyl-3-(4-(6-formyl-2-(3-methylmorpholino)-6,7-dihydro-5H-pyrrolo[3,4-d]pyrimidin-4-yl)phenyl)urea], the IC50 at PI3Kβ was 10 to 100 µM; at PI3Kα, 10 to 100 µM; on PI3Kγ it was 10 to 100 µM; at PI3Kδ, 10 to 100 µM; in assay [1], more than 100 µM; at mTOR it was 0.1 to 1 µM.

In the case of `CCNC(=O)Nc1ccc(-c2nc(N3CCOCC3)nc3c2CNC3)cc1` [Example 4, 1-ethyl-3-(4-(2-morpholino-6,7-dihydro-5H-pyrrolo[3,4-d]pyrimidin-4-yl)phenyl)urea], the IC50 at PI3Kβ fell in the range of 10 to 100 µM; on PI3Kα, 1 to 10 µM; at PI3Kγ, 10 to 100 µM; at PI3Kδ, 10 to 100 µM; in assay [1], 10 to 100 µM; at mTOR, 0.1 to 1 µM.

For the compound `O=C(Nc1ccc(-c2nc(N3CCOCC3)nc3c2CNC3)cc1)NC1CC1` [Example 5, 1-cyclopropyl-3-(4-(2-morpholino-6,7-dihydro-5H-pyrrolo[3,4-d]pyrimidin-4-yl)phenyl)urea], the IC50 on PI3Kβ lay within 10 to 100 µM; at PI3Kα, 10 to 100 µM; on PI3Kγ, 10 to 100 µM; at PI3Kδ, 10 to 100 µM; in assay [1], 10 to 100 µM; at mTOR, 0.1 to 1 µM.

For the compound `NC(=O)Nc1ccc(-c2nc(N3CCOCC3)nc3c2CNC3)cc1` [Example 6, 1-(4-(2-morpholino-6,7-dihydro-5H-pyrrolo[3,4-d]pyrimidin-4-yl)phenyl)urea], the half-maximal inhibitory concentration (IC50) at PI3Kβ fell in the range of 1 to 10 µM; at PI3Kα, 1 to 10 µM; at PI3Kγ it was 1 to 10 µM; on PI3Kδ, 1 to 10 µM; in assay [1], 10 to 100 µM; on mTOR, 0.1 to 1 µM.

On to `CCNC(=O)Nc1ccc(-c2nc(N3CCOCC3)nc3c2CN(C(=O)OCC)C3)cc1` [Example 7, ethyl 4-(4-(3-ethylureido)phenyl)-2-morpholino-5H-pyrrolo[3,4-d]pyrimidine-6(7H)-carboxylate], for which the IC50 is more than 100 µM on PI3Kβ; more than 100 µM on PI3Kα; more than 100 µM at PI3Kγ; more than 100 µM on PI3Kδ; more than 100 µM in assay [1]; 1 to 10 µM at mTOR.

For the compound `CCNC(=O)Nc1ccc(-c2nc(N3CCOC[C@@H]3C)nc3c2CN(C(=O)OCC)C3)cc1` [Example 8, (S)-ethyl 4-(4-(3-ethylureido)phenyl)-2-(3-methylmorpholino)-5H-pyrrolo[3,4-d]pyrimidine-6(7H)-carboxylate], the IC50 on PI3Kβ is more than 100 µM; on PI3Kα it was more than 100 µM; at PI3Kγ it was more than 100 µM; on PI3Kδ, more than 100 µM; in assay [1], more than 100 µM; on mTOR it was 10 to 100 µM.

`CCOC(=O)N1Cc2nc(N3CCOC[C@@H]3C)nc(-c3ccc(NC(=O)NC4CC4)cc3)c2C1` [Example 9, (S)-ethyl 4-(4-(3-cyclopropylureido)phenyl)-2-(3-methylmorpholino)-5H-pyrrolo[3,4-d]pyrimidine-6(7H)-carboxylate]: the IC50 at PI3Kβ is more than 100 µM; at PI3Kα, more than 100 µM; on PI3Kγ, more than 100 µM; on PI3Kδ, more than 100 µM; in assay [1] it was more than 100 µM; at mTOR, 1 to 10 µM.

Regarding `CCOC(=O)Nc1ccc(-c2nc(N3CCOC[C@@H]3C)nc3c2CNC3)cc1` [Example 10, (S)-ethyl (4-(2-(3-methylmorpholino)-6,7-dihydro-5H-pyrrolo[3,4-d]pyrimidin-4-yl)phenyl)carbamate], the half-maximal inhibitory concentration (IC50) was more than 100 µM at PI3Kβ; 10 to 100 µM on PI3Kα; more than 100 µM at PI3Kγ; more than 100 µM on PI3Kδ; more than 100 µM in assay [1]; 10 to 100 µM on mTOR.

Turning to `C[C@H]1COCCN1c1nc2c(c(-c3ccc(NC(=O)NC4CC4)cc3)n1)CN(C)C2` [Example 11, (S)-1-cyclopropyl-3-(4-(6-methyl-2-(3-methylmorpholino)-6,7-dihydro-5H-pyrrolo[3,4-d]pyrimidin-4-yl)phenyl)urea], the IC50 on PI3Kβ lay in the range of 10 to 100 µM; at PI3Kα, 10 to 100 µM; on PI3Kγ, 10 to 100 µM; at PI3Kδ, 10 to 100 µM; in assay [1], 10 to 100 µM; at mTOR, 0.1 to 1 µM.

As for `CC(=O)N1Cc2nc(N3CCOC[C@@H]3C)nc(-c3ccc(NC(=O)NC4CC4)cc3)c2C1` [Example 12, (S)-1-(4-(6-acetyl-2-(3-methylmorpholino)-6,7-dihydro-5H-pyrrolo[3,4-d]pyrimidin-4-yl)phenyl)-3-cyclopropylurea], the IC50 was 10 to 100 µM on PI3Kβ; 10 to 100 µM on PI3Kα; more than 100 µM at PI3Kγ; 10 to 100 µM on PI3Kδ; more than 100 µM in assay [1]; 1 to 10 µM on mTOR.
